Here are results for 7 molecules from patent publication US8691758B2, “Inhibitors of serine proteases, particularly HCV NS3-NS4A protease” (Vertex Pharmaceuticals Incorporated, priority 2003, dated 2014).

For assay [1], the target named is HCV NS3-NS4A protease (tNS3 with KK4A) (Hepatitis C virus genotype 1a, UniProt P27958). The experiment in a line: HCV Ki assay (HPLC microbore separation of 5AB substrate and products). The settings on record: 25 nM tNS3, 25 μM KK4A, 25 μM 5AB substrate, 20 min at 30 C. The assay is classed as biochemical. As for the experimental part:
HPLC Microbore Method for Separation of 5AB Substrate and Products
• NH2-Glu-Asp-Val-Val-(alpha)Abu-Cys-Ser-Met-Ser-Tyr-COOH
A stock solution of 20 mM 5 AB (or concentration of your choice) was made in DMSO w/0.2M DTT. This was stored in aliquots at −20 C.
Buffer: 50 mM HEPES, pH 7.8; 20% glycerol; 100 mM NaCl
Total assay volume was 100 μL
The buffer, KK4A, DTT, and tNS3 were combined; distributed 78 μL each into wells of 96 well plate. This was incubated at 30 C for ˜5-10 min.
2.5 μL of appropriate concentration of test compound was dissolved in DMSO (DMSO only for control) and added to each well. This was incubated at room temperature for 15 min.
Initiated reaction by addition of 20 μL of 250 μM 5AB substrate (25 μM concentration is equivalent or slightly lower than the Km for 5 AB). • Incubated for 20 min at 30 C. • Terminated reaction by addition of 25 μL of 10% TFA • Transferred 120 μL aliquots to HPLC vials
Separated SMSY product from substrate and KK4A by the following method:
Microbore Separation Method:
• Instrumentation: Agilent 1100 • Degasser G1322A • Binary pump G1312A • Autosampler G1313A • Column thermostated chamber G1316A • Diode array detector G1315A • Column: • Phenomenex Jupiter; 5 micron C18; 300 angstroms; 150×2 mm; P/O 00F-4053-B0 • Column thermostat: 40 C • Injection volume: 100 μL • Solvent A=HPLC grade water+0.1% TFA • Solvent B=HPLC grade acetonitrile+0.1% TFA
• Stop time: 17 min • Post-run time: 10 min.

The subject of assay [2] is Cells containing hepatitis C virus (HCV) replicon. The experiment in a line: HCV replicon cell assay (Taqman RT-PCR of HCV RNA). The assay is classed as cell-based. The conditions noted are these: concentration at which 50% inhibition of HCV RNA level is observed, 48-hour incubation, 2% FBS. Here is the method: HCV Replicon Cell Assay Protocol
Cells containing hepatitis C virus (HCV) replicon were maintained in DMEM containing 10% fetal bovine serum (FBS), 0.25 mg per ml of G418, with appropriate supplements (media A).
On day 1, replicon cell monolayer was treated with a trypsin:EDTA mixture, removed, and then media A was diluted into a final concentration of 100,000 cells per ml wit. 10,000 cells in 100 ul were plated into each well of a 96-well tissue culture plate, and cultured overnight in a tissue culture incubator at 37° C.
On day 2, compounds (in 100% DMSO) were serially diluted into DMEM containing 2% FBS, 0.5% DMSO, with appropriate supplements (media B). The final concentration of DMSO was maintained at 0.5% throughout the dilution series.
Media on the replicon cell monolayer was removed, and then media B containing various concentrations of compounds was added. Media B without any compound was added to other wells as no compound controls.
Cells were incubated with compound or 0.5% DMSO in media B for 48 hours in a tissue culture incubator at 37° C. At the end of the 48-hour incubation, the media was removed, and the replicon cell monolayer was washed once with PBS and stored at −80° C. prior to RNA extraction.
Culture plates with treated replicon cell monolayers were thawed, and a fixed amount of another RNA virus, such as Bovine Viral Diarrhea Virus (BVDV) was added to cells in each well. RNA extraction reagents (such as reagents from RNeasy kits) were added to the cells immediately to avoid degradation of RNA. Total RNA was extracted according the instruction of manufacturer with modification to improve extraction efficiency and consistency. Finally, total cellular RNA, including HCV replicon RNA, was eluted and stored at −80° C. until further processing.
A Taqman real-time RT-PCR quantification assay was set up with two sets of specific primers and probe. One was for HCV and the other was for BVDV. Total RNA extractants from treated HCV replicon cells was added to the PCR reactions for quantification of both HCV and BVDV RNA in the same PCR well. Experimental failure was flagged and rejected based on the level of BVDV RNA in each well. The level of HCV RNA in each well was calculated according to a standard curve run in the same PCR plate. The percentage of inhibition or decrease of HCV RNA level due to compound treatment was calculated using the DMSO or no compound control as 0% of inhibition. The IC50 (concentration at which 50% inhibition of HCV RNA level is observed) was calculated from the titration curve of any given compound.
Background: Replicon systems follow genome replication, usually without infectious particles.

HCV NS3-NS4A protease (tNS3 with KK4A), sequence (P27958 1658-1711): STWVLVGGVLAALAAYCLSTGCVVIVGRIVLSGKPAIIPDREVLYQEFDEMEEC
HCV NS3-NS4A protease (tNS3 with KK4A), sequence (P27958 1027-1208): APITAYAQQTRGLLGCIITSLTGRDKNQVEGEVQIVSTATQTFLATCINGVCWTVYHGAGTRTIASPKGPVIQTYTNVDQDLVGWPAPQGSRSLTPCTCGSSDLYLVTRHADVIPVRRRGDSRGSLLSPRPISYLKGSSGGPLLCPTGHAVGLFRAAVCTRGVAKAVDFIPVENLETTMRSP

Usually Ki stands for the equilibrium dissociation constant of an inhibitor or competing ligand from its target. A higher Ki goes with lower affinity. One may read the IC50 as the concentration at which inhibition is half-maximal. Low values mean greater potency, high ones weaker potency. Regarding `CCC[C@H](NC(=O)[C@@H]1CC2(CN1C(=O)[C@@H](NC(=O)[C@@H](NC(=O)c1[nH]c(C)c(C)c1C(C)=O)C1CCCCC1)C(C)(C)C)SCCCS2)C(=O)C(N)=O` [Compound 4a], the Ki in assay [1] is under 500 nM. In assay [2], the IC50 is under 500 nM.
On to `CCCC(NC(=O)[C@@H]1CC2(CN1C(=O)[C@@H](NC(=O)[C@@H](NC(=O)c1cnccn1)C1CCCCC1)C(C)(C)C)SCCCS2)C(=O)C(=O)NC1CC1` (stereo partly drawn) [Compound 6a], for which the Ki in assay [1] was under 500 nM.
`CCC[C@H](NC(=O)[C@@H]1CC2(CN1C(=O)[C@@H](NC(=O)[C@@H](NC(=O)c1cnccn1)C1CCCCC1)C(C)(C)C)SCCS2)C(=O)C(=O)NC1CC1` [Compound 7a] returned a Ki in assay [1] of under 500 nM. This molecule showed an IC50 in assay [2] of under 500 nM.
In turn, `CCC[C@H](NC(=O)[C@@H]1CC2(CN1C(=O)[C@@H](NC(=O)[C@@H](NC(=O)c1cnccn1)C1CCCCC1)C(C)(C)C)SCCCS2)C(=O)C(N)=O` [Compound 3a] yielded a Ki in assay [1] of under 500 nM. The IC50 in assay [2] is under 500 nM.
In assay [1], `CCC[C@H](NC(=O)[C@@H]1CC2(CN1C(=O)[C@@H](NC(=O)[C@@H](NC(=O)c1cnccn1)C1CCCCC1)C(C)(C)C)SCCCS2)C(=O)C(=O)NC1CC1` [Compound 2a, 2-(2-{2-cyclohexyl-2-[(pyrazine-2-carbonyl)-amino]-acetylamino}-3,3-dimethyl-butyryl)-6,10-dithia-2-azaspiro[4.5]decane-3-carboxylic acid(1-cyclopropylaminooxalyl-butyl)-amide] came in with an inhibition constant Ki of under 500 nM. Moreover, the IC50 in assay [2] was under 500 nM.
Consider `CCC[C@@H](NC(=O)[C@@H]1CC2(CN1C(=O)[C@@H](NC(=O)[C@@H](NC(=O)c1cnccn1)C1CCCCC1)C(C)(C)C)SCCCS2)C(=O)C(=O)NC1CC1` [Compound 5a], for which the Ki in assay [1] was under 500 nM.
As for `CCC[C@H](NC(=O)[C@@H]1CC2(CN1C(=O)[C@@H](NC(=O)[C@@H](NC(=O)c1[nH]c(C)c(C)c1C(C)=O)C1CCCCC1)C(C)(C)C)SCCCS2)C(=O)C(=O)NC1CC1` [Compound 1a, 2-(2-{2-[(3-acetyl-4,5-dimethyl-1H-pyrrole-2-carbonyl)-amino]-2-cyclohexyl-acetylamino}-3,3-dimethyl-butyryl)-6,10-dithia-2-aza-spiro[4.5]decane-3-carboxylic acid(1-cyclopropylaminooxalyl-butyl)-amide], in assay [1], the inhibition constant Ki is under 500 nM. Further, the IC50 in assay [2] is under 500 nM.
